From the Kinase Knowledgebase extract (Sharma et al. 2016)
pIC50: −log10 of the molar value.

Target: PIK3CA (human) (UniProt P42336)
Assay: Inhibition of PIK3CA Kinase Activity

Sequence of PIK3CA (human) (P42336 whole entry, looked up): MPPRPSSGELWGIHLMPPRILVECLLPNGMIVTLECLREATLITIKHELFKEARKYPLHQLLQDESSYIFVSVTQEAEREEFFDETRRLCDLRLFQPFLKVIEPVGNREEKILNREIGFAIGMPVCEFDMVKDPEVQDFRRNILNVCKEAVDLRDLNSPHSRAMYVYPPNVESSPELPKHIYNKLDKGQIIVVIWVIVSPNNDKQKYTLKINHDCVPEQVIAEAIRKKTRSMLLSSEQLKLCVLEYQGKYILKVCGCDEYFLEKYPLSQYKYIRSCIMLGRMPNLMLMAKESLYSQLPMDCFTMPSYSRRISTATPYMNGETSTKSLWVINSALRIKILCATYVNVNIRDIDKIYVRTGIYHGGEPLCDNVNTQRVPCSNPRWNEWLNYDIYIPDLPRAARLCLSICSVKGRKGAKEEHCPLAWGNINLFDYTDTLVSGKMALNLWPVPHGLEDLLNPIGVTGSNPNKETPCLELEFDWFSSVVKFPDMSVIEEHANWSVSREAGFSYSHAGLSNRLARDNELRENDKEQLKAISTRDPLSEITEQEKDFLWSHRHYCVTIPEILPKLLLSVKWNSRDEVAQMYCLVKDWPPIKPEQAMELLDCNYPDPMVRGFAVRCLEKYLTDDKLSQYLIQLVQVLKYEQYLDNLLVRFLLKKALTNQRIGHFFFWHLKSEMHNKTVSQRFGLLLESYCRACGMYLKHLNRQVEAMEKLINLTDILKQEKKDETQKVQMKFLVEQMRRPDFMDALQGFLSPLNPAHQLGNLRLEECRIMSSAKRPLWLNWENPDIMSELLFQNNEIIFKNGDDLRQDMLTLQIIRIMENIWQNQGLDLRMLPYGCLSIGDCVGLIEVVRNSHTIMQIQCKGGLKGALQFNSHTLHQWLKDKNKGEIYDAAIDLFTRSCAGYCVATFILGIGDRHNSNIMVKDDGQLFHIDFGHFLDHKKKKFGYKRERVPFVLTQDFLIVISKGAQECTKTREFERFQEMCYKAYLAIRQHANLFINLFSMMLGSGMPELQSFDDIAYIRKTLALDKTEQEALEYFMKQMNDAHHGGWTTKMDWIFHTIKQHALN

| pIC50 | Structure (SMILES) |
| --- | --- |
| 6.00 to 6.60 | CNC(=O)c1ccc(-c2ccc3c(c2)CN(c2ncnc(C)c2Cc2ccc(F)cc2)CCO3)nc1 |
| 6.60 to 7.30 | CC1(C)CCc2ncnc(N3CCOc4ccc(-c5cnc(N)c(CS(C)(=O)=O)c5)cc4C3)c2C1 |
| 7.30 to 8.00 | CC1=Cc2ncnc(N3CCOc4ccc(-c5cnc6nc(C)[nH]c6c5)cc4C3)c2CC1(C)C |
| 6.60 to 7.30 | CCCc1nc2ccc(-c3ccc4c(c3)CN(c3ccnc5ccccc35)CCO4)cc2[nH]1 |
| 6.60 to 7.30 | CN1C[C@@H]2C[C@H]1CN2S(=O)(=O)c1cc(-c2ccc3c(c2)CN(c2ncnc4c2CC(C)(C)CC4)CCO3)cnc1N |
| 6.00 to 6.60 | CSc1nc2c(c(N3CCOc4ccc(-c5ccc6nc(C)[nH]c6c5)cc4C3)n1)CCC2 |
| 6.00 to 6.60 | COc1ccc2c(N3CCOc4ccc(-c5ccc6[nH]c(=O)[nH]c6c5)cc4C3)nc(C)nc2c1 |
| 7.30 to 8.00 | COc1ccc2c(N3CCOc4ccc(-c5cnc(NC(C)=O)s5)cc4C3)nc(C)nc2c1 |
| 6.60 to 7.30 | CC1(C)CCc2ncnc(N3CCOc4ccc(-c5cnc(N)c(S(=O)(=O)NCC6CCCCN6)c5)cc4C3)c2C1 (stereo not given) |
| 7.30 to 8.00 | CC1(C)C=Cc2ncnc(N3CCOc4ccc(-c5cnc6nc(C7CC7)[nH]c6c5)cc4C3)c2C1 |
| 7.30 to 8.00 | CCc1c(C)nc(CN(C)C)nc1N1CCOc2ccc(-c3ccc4[nH]c(C)nc4c3)cc2C1 |
| 6.60 to 7.30 | Cc1ncnc(N2CCOc3ccc(-c4ccc(C(=O)NCC(F)F)cc4)cc3C2)c1Cc1ccc(F)cc1 |
| 7.30 to 8.00 | Cc1nc2ncc(-c3ccc4c(c3)CN(c3ncnc5c3CCC(C)(c3ccccc3)C5)CCO4)cc2[nH]1 (stereo not given) |
| 6.60 to 7.30 | CC1(C)CCc2ncnc(N3CCOc4ccc(-c5cnc(N)c(S(=O)(=O)O)c5)cc4C3)c2C1 |
| 7.30 to 8.00 | CC1(C)CCc2ncnc(N3CCOc4ccc(-c5cnc(N)c(S(=O)(=O)N6CCC(O)C6)c5)cc4C3)c2C1 (stereo not given) |
| 6.60 to 7.30 | Cc1nc2ccc(-c3ccc4c(c3)CN(c3cc(C(F)(F)F)nc5ccccc35)CCO4)cc2[nH]1 |
| ≥ 8.00 | CCC1CCc2ncnc(N3CCOc4ccc(-c5cnc6nc(N)[nH]c6c5)cc4C3)c2C1 (stereo not given) |
| 7.30 to 8.00 | Cc1ccc2c(N3CCOc4ccc(-c5ccc6nc(C)[nH]c6c5)cc4C3)ncnc2c1 |
| 6.60 to 7.30 | Cc1cccc(Cc2c(C)ncnc2N2CCOc3ccc(-c4ccc5nc(C)[nH]c5c4)cc3C2)c1 |
| 7.30 to 8.00 | Cc1nc2cc(-c3ccc4c(c3)CN(c3nc(C(C)N)nc5c3CC(C)(C)CC5)CCO4)ccc2[nH]1 (stereo not given) |

| pIC50 | Structure (SMILES) |
| --- | --- |
| 6.00 to 6.60 | COc1cncc(-c2ccc3c(c2)CN(c2ncnc4c2CC(C)(C)CC4)CCO3)c1 |
| 7.30 to 8.00 | Cc1nc2ncc(-c3ccc4c(c3)CN(c3nc(CN(C)C)nc5ccc(F)cc35)CCO4)cc2[nH]1 |
| 7.30 to 8.00 | Cc1nc2cc(-c3ccc4c(c3)CN(c3nc(CF)nc5c3CC(C)(C)CC5)CCO4)ccc2[nH]1 |
| 7.30 to 8.00 | Cc1nc2ccc(-c3ccc4c(c3)CN(c3ncnc(C)c3Cc3cccc(F)c3)CCO4)cc2[nH]1 |
| 6.60 to 7.30 | Cc1nc2ncc(-c3ccc4c(c3)CN(c3ncnc5c3CCC(C(F)(F)F)C5)CCO4)cc2[nH]1 (stereo not given) |
| 6.60 to 7.30 | CCc1nc2ccc(-c3ccc4c(c3)CN(c3ncnc5c3CC(C)(C)CC5)CCO4)cc2[nH]1 |
| ≥ 8.00 | CCNc1nc2ccc(-c3ccc4c(c3)CN(c3nc(C)nc5cc(O)ccc35)CCO4)cc2[nH]1 |
| 7.30 to 8.00 | CC1(C)CCc2ncnc(N3CCOc4ccc(-c5cnc(N)c(S(=O)(=O)N6CC7(CNC7)C6)c5)cc4C3)c2C1 |
| 6.00 to 6.60 | Cc1ncnc(N2CCOc3ccc(-c4cncs4)cc3C2)c1Cc1ccc(F)cc1 |
| 7.30 to 8.00 | COCCc1c(C)nc(CN(C)C)nc1N1CCOc2ccc(-c3cnc4sc(N)nc4c3)cc2C1 |
| 6.60 to 7.30 | CCc1ncnc(N2CCOc3ccc(-c4ccc5nc(C)[nH]c5c4)cc3C2)c1C |
| 7.30 to 8.00 | COC(=O)Nc1nc2ccc(-c3ccc4c(c3)CN(c3nc(C)nc5ccccc35)CCO4)cc2[nH]1 |
| 6.00 to 6.60 | CC1(C)CCc2ncnc(N3CCOc4ccc(-c5cnc(Cl)c(CS(C)(=O)=O)c5)cc4C3)c2C1 |
| ≥ 8.00 | CCNc1nc2ncc(-c3ccc4c(c3)CN(c3nc(C)nc5c3CC(C)(C)CC5)CCO4)cc2[nH]1 |
| ≥ 8.00 | COC(=O)Nc1nc2ncc(-c3ccc4c(c3)CN(c3nc(CN(C)C)nc5c3CC(C)(C)CC5)CCO4)cc2[nH]1 |
| 6.60 to 7.30 | COc1cc2ncnc(N3CCOc4ccc(-c5ccc6nc(C)[nH]c6c5)cc4C3)c2cc1Br |
| ≥ 8.00 | CN(C)Cc1nc2c(c(N3CCOc4ccc(-c5cnc6nc(C7CC7)[nH]c6c5)cc4C3)n1)CC(C)(C)CC2 |
| 6.60 to 7.30 | Cc1nc2ccc(-c3ccc4c(c3)CN(c3ncnc5cc(Cl)ccc35)CCO4)cc2[nH]1 |
| 7.30 to 8.00 | CC1(C)CCc2ncnc(N3CCOc4ccc(-c5cnc(N)c(S(=O)(=O)N[C@H]6CC[C@H](N)CC6)c5)cc4C3)c2C1 |
| 7.30 to 8.00 | CC1(C)CCc2ncnc(N3CCOc4ccc(-c5cnc(N)c(S(=O)(=O)N6C[C@@H]7C[C@H]6CN7)c5)cc4C3)c2C1 |
